Values joined by “and” are separate entries in the source; they are usually repeats but may differ in a detail not shown here. Equal entries are not always repeated. Where two headings read alike, the source gives them in different places.
Assays:
[1] = test system: Conyza bonariensis (hairy fleabane, ERIBO); conditions: field trial
Experimental: (§1) Field trials were conducted under normal field conditions in multiple states in the United States, including but not limited to Alabama, Mississipi, South Carolina and Tennessee; and in Brazil, including but not limited to the states of Goias, Mato Grosso, Parana, Rio Grande do Sul, and Sao Paulo. Trials were established as RCB (randomized complete block) design, with 3-4 replicates per treatment, and plot sizes varying from 2-3 meters (m) wide by 4-8 m long. Treatments were applied with small plot backpack sprayers, using pressurized carbon dioxide (CO2) as propellant. Pressure varied from 22-40 PSI, with spray tips typically of a Flat Fan type applying water diluent at 150 L/ha. Boom sizes varied from 2-3 m in width. Treatments were applied to soybean, cotton or fallow crop land. Weed sizes varied, but all treatments were applied as post-emergence treatments to weeds from 2 leaf to 2 tiller growth stages varying from 2-15 inches (in) in height. No additional adjuvant was mixed with the treatments applied in the field
(§2) The treated plots and control plots were rated blind at various intervals after application.
(§3) Colby's equation was used to determine the herbicidal effects expected from the mixtures (Colby, S. R. Calculation of the synergistic and antagonistic response of herbicide combinations. Weeds 1967 15, 20-22). A t-test (alpha=0.05) between Colby predictions and observed combinations was used to test for significant differences indicating synergy or antagonism.
(§4) The following equation was used to calculate the expected activity of mixtures containing two active ingredients, A and B:
(§5) Expected=A+B−(A×B/100) • A=observed efficacy of active ingredient A at the same concentration as used in the mixture; • B=observed efficacy of active ingredient B at the same concentration as used in the mixture.

[2] = test system: Conyza canadensis (horseweed, ERICA); conditions: field trial
Experimental: as §1, §2, §3, §4, §5

[3] = test system: Sesbania exaltata (hemp sesbania, SEBEX); test: Field trial, % visual weed control; type: in vivo; conditions: 8DAA, 840 g ae/ha alone
Text: (§6) Boom sizes varied from 2-3 m in width.

[4] = test system: Raphanus raphanistrim (wild radish, RAPRA); test: Field trial, % visual weed control; type: in vivo; conditions: 6DAA, 800 g ae/ha alone
Text: as §6

[5] = test system: Spermacoce latifolia (broadleaf buttonweed, BOILF); test: Field trial, % visual weed control; type: in vivo
Text: as §6

[6] = test system: Glycine max (soybean, glyphosate tolerant, GLXMA); test: Field trial, % visual weed control; type: in vivo
Text: as §6

[7] = test system: Amaranthus palmeri (Palmer pigweed, AMAPA); test: Field trial, % visual weed control; type: in vivo
Text: as §6

[8] = test system: Euphorbia heterophylla (wild poinsettia, EPHHL); test: Field trial, % visual weed control; type: in vivo; conditions: 28DAA, 615 g ae/ha alone
Text: as §6

[9] = test system: Ipomoea grandifolia (Corda-de-viola, IAQGR); test: Field trial, % visual weed control; type: in vivo; conditions: 17DAA, 800 g ae/ha alone
Text: as §6

[10] = test system: Euphorbia hirta (garden spurge, EPHHI); test: Field trial, % visual weed control; type: in vivo
Text: as §6

[11] = test system: Commelina benghalensis (hairy wandering Jew, COMBE); test: Field trial, % visual weed control; type: in vivo; conditions: 800 g ae/ha alone
Text: as §6

[12] = test system: Tridax procumbens L (tridax daisy, TRQPR); test: Field trial, % visual weed control; type: in vivo; conditions: 16DAA, 800 g ae/ha alone
Text: as §6

[13] = test system: Brachiaria decumbens (Surinam grass, BRADC); test: Field trial, % visual weed control; type: in vivo; conditions: 12DAA, 720 g ae/ha alone
Text: as §6

[14] = test system: Ipomoea species (morningglory, IPOSS); test: Field trial, % visual weed control; type: in vivo; conditions: 8DAA, 840 g ae/ha alone
Text: as §6

[15] = test system: Jacquemontia tamnifolia (smallflower morningglory, IAQTA); test: Field trial, % visual weed control; type: in vivo; conditions: 7DAA, 1120 g ae/ha alone
Text: as §6

[16] = test system: Ambrosia artemisiifolia (common ragweed, AMBEL); test: Greenhouse trial, % visual weed control; type: in vivo; conditions: 14DAA, 105 g ae/ha alone
Experimental: (§7) Greenhouse trials were conducted under controlled environment greenhouse conditions, with plants grown in pots with Metromix soil and bottom watered. Treatments were applied with 3 replicates per treatment, using a track sprayer with 2 flat fan nozzles at 40 pounds per square inch (PSI). Water was used as the diluent at 140 liters per hectare (L/ha), with weeds being 2-4 leaf stage and approximately 3 inches in height at treatment.

[17] = test system: Abutilon theophrasti (velvetleaf, ABUTH); test: Greenhouse trial, % visual weed control; type: in vivo; conditions: 14DAA
Experimental: as §7

[18] = test system: Elymus repens (quackgrass, AGRRE); test: Greenhouse trial, % visual weed control; type: in vivo; conditions: 14DAA, 210 g ae/ha alone
Experimental: as §7

[19] = test system: Chenopodium album (common lambsquarter, CHEAL); test: Greenhouse trial, % visual weed control; type: in vivo; conditions: 14DAA
Experimental: as §7

SMILES: CNC.O=C(O)CNCP(=O)(O)O [Glyphosate-DMA, dimethylamine salt of N-(phosphonomethyl)glycine]
- Mean % Weed Control ([1]; 6DAA, 360 g ae/ha alone): 6.3%
- Mean % Weed Control ([1]; 6DAA, 720 g ae/ha alone): 5.0%
- Mean % Weed Control ([1]; 6DAA, 1080 g ae/ha alone): 12.5%
- Mean % Weed Control ([1]; 7DAA, 800 g ae/ha alone): 13.8% and 11.3%
- Mean % Weed Control ([1]; 10DAA, 800 g ae/ha alone): 41.3%
- Mean % Weed Control ([1]; 20DAA, 800 g ae/ha alone): 35.0%
- Mean % Weed Control ([1]; 21DAA, 800 g ae/ha alone): 36.3%
- Mean % Weed Control ([1]; 28DAA, 800 g ae/ha alone): 53.8% and 32.5% and 33.8%
- Mean % Weed Control ([1]; 31DAA, 800 g ae/ha alone): 38.8%
- Mean % Weed Control ([1]; 36DAA, 800 g ae/ha alone): 75.0% and 55.0%
- Mean % Weed Control ([2]; 10DAA, 960 g ae/ha alone): 10%
- Mean % Weed Control ([2]; 14DAA, 840 g ae/ha alone): 67.5%
- Mean % Weed Control ([2]; 15DAA, 960 g ae/ha alone): 15%
- Mean % Weed Control ([2]; 21DAA, 840 g ae/ha alone): 68.8%
- Mean % Weed Control ([2]; 28DAA, 840 g ae/ha alone): 78.3%
- Mean % Weed Control ([2]; 31DAA, 960 g ae/ha alone): 51.7%
- Mean % Weed Control [3]: 53.8%
- Mean % Weed Control [4]: 85.0%
- Mean % Weed Control ([5]; 18DAA, 800 g ae/ha alone): 47.5%
- Mean % Weed Control ([5]; 21DAA, 800 g ae/ha alone): 79.5%
- Mean % Weed Control ([5]; 24DAA, 480 g ae/ha alone): 51.7%
- Mean % Weed Control ([5]; 27DAA, 800 g ae/ha alone): 72.5%
- Mean % Weed Control ([5]; 28DAA, 800 g ae/ha alone): 77.5%
- Mean % Weed Control ([6]; 7DAA, 960 g ae/ha alone): 0.0%
- Mean % Weed Control ([6]; 16DAA, 480 g ae/ha alone): 0.0%
- Mean % Weed Control ([6]; 28DAA, 480 g ae/ha alone): 0.0%
- Mean % Weed Control ([6]; 28DAA, 960 g ae/ha alone): 0.0%
- Mean % Weed Control ([6]; 30DAA, 480 g ae/ha alone): 0.0%
- Mean % Weed Control ([7]; 7DAA, 840 g ae/ha alone): 52.5%
- Mean % Weed Control ([7]; 13DAA, 1120 g ae/ha alone): 60.0%
- Mean % Weed Control ([7]; 21DAA, 1120 g ae/ha alone): 61.3%
- Mean % Weed Control [8]: 68.3%
- Mean % Weed Control [9]: 87.0%
- Mean % Weed Control ([10]; 7DAA, 800 g ae/ha alone): 43.8%
- Mean % Weed Control ([10]; 18DAA, 800 g ae/ha alone): 50.0%
- Mean % Weed Control ([10]; 21DAA, 800 g ae/ha alone): 41.3%
- Mean % Weed Control ([10]; 24DAA, 480 g ae/ha alone): 50.0%
- Mean % Weed Control ([11]; 12DAA): 50.0%
- Mean % Weed Control ([11]; 15DAA): 62.5% and 43.8%
- Mean % Weed Control ([11]; 18DAA): 51.3%
- Mean % Weed Control ([11]; 27DAA): 70.0%
- Mean % Weed Control ([11]; 28DAA): 63.8%
- Mean % Weed Control ([11]; 35DAA): 67.5%
- Mean % Weed Control [12]: 47.5%
- Mean % Weed Control [13]: 73.8%
- Mean % Weed Control [14]: 48.8%
- Mean % Weed Control [15]: 86.3%
- Mean % Weed Control [16]: 26.7%
- Mean % Weed Control ([17]; 105 g ae/ha alone): 0.0%
- Mean % Weed Control ([17]; 210 g ae/ha alone): 3.3%
- Mean % Weed Control ([17]; 420 g ae/ha alone): 63.3%
- Mean % Weed Control ([17]; 840 g ae/ha alone): 85.0%
- Mean % Weed Control [18]: 12.5%
- Mean % Weed Control ([19]; 105 g ae/ha alone): 0.0%
- Mean % Weed Control ([19]; 210 g ae/ha alone): 21.7%
- Mean % Weed Control ([19]; 420 g ae/ha alone): 70.0%

Source: US20150173371A1 (Dow AgroSciences LLC, priority 2013, published 2015)
